Laboratory results from paper PMC7395068, “The evolution of strategies to minimise the risk of human drug-induced liver injury (DILI) in drug discovery and development” (Archives of Toxicology, 2020).
Like-named read-outs stand apart in the source and are kept apart here.

Columns and labels:
PHH [1] = details: cited from earlier work
[2] = test system: THLE or HepG2 cells, isolated mitochondria, BSEP; details: cited from earlier work
[3] = Plasma free fraction (fu) and unbound Cmax (Cmax,u); assay type: in vitro ADME, human; details: unbound plasma Cmax
Method: The prediction of DILI severity was evaluated further using the 3D combined HCI assays using plasma-free fraction. The majority of fu values were obtained from literature, when unavailable in-house prediction was utilised. Unbound plasma Cmax concentrations (Cmax,u) were derived by multiplying total plasma Cmax with the corresponding free fraction (fu) for each compound.

HepG2 cells [4] = details: cited from earlier work
[5] = read-out: Human plasma Cmax; total plasma Cmax.tot, median of 9 literature references; cited from earlier work
PHH [6] = details: In vitro Assay; ref Albrecht 2019; cited from earlier work
[7] = test system: isolated mouse liver mitochondria; details: In vitro Assay; ref Porceddu 2012; cited from earlier work
hLiMTs [8] = test: Combined HCI (HCS) and cellular ATP 3D assay in hLiMTs; details: for AC50 / minimal effective concentration: Homo sapiens
[9] = cited from earlier work
[10] = plasma free fraction; cited from earlier work
[11] = test system: HepG2 C3A spheroid, BSEP, Glu/Gal in HepG2 cells, bioactivation; details: cited from earlier work
HepG2 cells [12] = details: Structural based (HCI), HepG2; ref O'Brien et al. 2006; cited from earlier work
HepG2 = test system: HepG2; design: method as in Albrecht 2019; details: In vitro Assay; ref Albrecht 2019; cited from earlier work
HepG2 cells [13] = details: cited from earlier work; remark: listed apart in the source
HepaRG spheroids = test: Combined HCI (HCS) and cellular ATP 3D assay in HepaRG spheroids
hLiMTs [14] = details: cited from earlier work
[15] = In vitro Assay, ref Proctor 2017
[16] = Modeled in vitro assays (cytotoxicity, mitochondrial dysfunction, BSEP), ref Aleo et al. 2019
[17] = In vitro Assay, ref Persson 2013
[18] = Microtissue model structural based (HCI), combined HCS and ATP, MEC < 25 × Cmax.tot cut-off

CC(=O)Oc1ccccc1C(=O)O [acetylsalicylic acid]
PHH/100xCmax, Proctor (2017) (PHH [1]; 2D PHH, ATP, IC50 < 100 × Cmax.tot, ref Proctor et al. 2017): -VE
PHH/100uM, Proctor (2017) (PHH [1]; 2D PHH, ATP, IC50 threshold 100 µM, ref Proctor et al. 2017): -VE
PHH ATP <100uM (PHH [1]; [15]): -VE
Partition Hybrid HRM Score ([2]; In vitro Assay, ref Aleo 2019): -VE
Ro2 Hybrid HRM Score ([2]; In vitro Assay, ref Aleo 2019): -VE
Partition Hybrid HRM Score ≥4, Aleo (2019) [2, 16]: -VE
Partition Hybrid HRM Score ≥8, Aleo (2019) [2, 16]: -VE
Rule of Two hybrid HRM Score ≥3, Aleo (2019) [2, 16]: -VE
Rule of Two hybrid HRM Score ≥8, Aleo (2019) [2, 16]: -VE
Human plasma Cmax,u [3]: 538.224 µM
Cluser analysis (HepG2 cells [4]; [17]): -VE
Structural based (HCI) (HepG2 cells [4]; [17]): -VE
DILI in vitro assay prediction, Persson (2013) (HepG2 cells [4]; Structural based (HCI), HepG2, ref Persson et al. 2013): -VE
Cmax [5]: 1380 µM
Cytotoxicity PHH 48 hrs (PHH [6]): +VE
in vitro data EC2<=1x Cmax [7]: +VE
in vitro data EC20<=2uM [7]: -VE
AC50 (hLiMTs [8]; read-out: ATP endpoint AC50): 3.25 mM
minimal effective concentration (hLiMTs [8]; read-out: ATP endpoint MEC): 2270 µM
AC50 (hLiMTs [8]; read-out: HCS endpoint AC50): 4.69 mM
minimal effective concentration (hLiMTs [8]; read-out: HCS endpoint MEC): 1930 µM
DILI prediction hLiMTs (HCS-MEC) (hLiMTs [8]; [18]): +VE (MEC < 25 × Cmax.tot cut-off)
hLiMTs <25x Avg Cmax ATP (hLiMTs [8]; hLiMTs, ATP endpoint, cut-off <25x Avg Cmax): +ve
hLiMTs <100x Avg Cmaxu ATP (hLiMTs [8]; hLiMTs, ATP endpoint, cut-off <100x Avg Cmaxu): +ve (<100x Avg Cmaxu)
hLiMTs <25x Avg Cmax HCS (hLiMTs [8]; hLiMTs, HCS endpoints, cut-off <25x Avg Cmax): +ve
hLiMTs <100x Avg Cmaxu HCS (hLiMTs [8]; hLiMTs, HCS endpoints, cut-off <100x Avg Cmaxu): +ve (<100x Avg Cmaxu)
hLiMTs <25x Avg Cmax All (hLiMTs [8]; hLiMTs, all endpoints (ATP and HCS), cut-off <25x Avg Cmax): +ve
hLiMTs Cmax max All (hLiMTs [8]; hLiMTs, all endpoints, Cmax max used): +ve
hLiMTs Cmax min All (hLiMTs [8]; hLiMTs, all endpoints, Cmax min used): +ve
hLiMTs <10 uM All (hLiMTs [8]; hLiMTs, all endpoints, cut-off <10 uM): -ve
hLiMTs <100x Avg Cmaxu All (hLiMTs [8]; hLiMTs, all endpoints, cut-off <100x Avg Cmaxu): +ve (<100x Avg Cmaxu)
Assigned DILI category ([9]; Chen et al. 2016 or literature alignment, ref Chen et al. 2016): 3
In vivo DILI ([9]; […]): -VE
In vivo DILI ([9]; ref Albrecht 2019): +VE
In vivo DILI ([9]; ref Aleo 2019): +VE
In vivo DILI ([9]; ref Persson 2013): +VE
In vivo DILI ([9]; ref Porceddu 2012): +VE
In vivo DILI ([9]; ref Proctor 2017): +VE
In vivo DILI ([9]; ref Tolosa 2012): +VE
In vivo DILI ([9]; ref Williams 2019): +VE
fu [10]: 0.390
Bayesian Machine Learning DILI prediction, Williams (2019) ([11]; Bayesian modeling, ref Williams et al. 2019): -VE
Bayesian Machine Learning ([11]; In vitro Assay, ref Williams 2019): -VE
DILI in vitro assay prediction, O'Brien (2006) (HepG2 cells [12]): +VE (lowest HCI endpoint IC50 (or in the absence of dose–response < 100 µM) < 30 × total human plasma exposure levels (Cmax.tot))
Cytotoxicity HepG2 48 hrs (HepG2): +VE
Structural based (HCI) (HepG2 cells [13]; In vitro Assay, ref Tolosa 2012): +VE
DILI in vitro assay prediction, Tolosa (2012) (HepG2 cells [13]; Structural based (HCI), HepG2, ref Tolosa et al. 2012): +VE
HepaRG <25x Avg Cmax ATP (HepaRG spheroids; HepaRG, ATP endpoint, cut-off <25x Avg Cmax): +ve
HepaRG <100x Avg Cmaxu ATP (HepaRG spheroids; HepaRG, ATP endpoint, cut-off <100x Avg Cmaxu): +ve (<100x Avg Cmaxu)
HepaRG <25x Avg Cmax HCS (HepaRG spheroids; HepaRG, HCS endpoints, cut-off <25x Avg Cmax): +ve
HepaRG <100x Avg Cmaxu HCS (HepaRG spheroids; HepaRG, HCS endpoints, cut-off <100x Avg Cmaxu): +ve (<100x Avg Cmaxu)
HepaRG <25x Avg Cmax All (HepaRG spheroids; HepaRG, all endpoints (ATP and HCS), cut-off <25x Avg Cmax): +ve
HepaRG Cmax max All (HepaRG spheroids; HepaRG, all endpoints, Cmax max used): +ve
HepaRG Cmax min All (HepaRG spheroids; HepaRG, all endpoints, Cmax min used): +ve
HepaRG <10 uM All (HepaRG spheroids; HepaRG, all endpoints, cut-off <10 uM): -ve
HepaRG <100x Avg Cmaxu All (HepaRG spheroids; HepaRG, all endpoints, cut-off <100x Avg Cmaxu): +ve (<100x Avg Cmaxu)
AC50 (HepaRG spheroids; Homo sapiens, HepaRG, read-out: ATP endpoint AC50): 1.63 mM
minimal effective concentration (HepaRG spheroids; Homo sapiens, HepaRG, read-out: ATP endpoint MEC): 659 µM
minimal effective concentration (HepaRG spheroids; Homo sapiens, HepaRG, read-out: HCS endpoint MEC): 1340 µM
DILI prediction HepaRG spheroids (HCS-MEC) (HepaRG spheroids; [18]): +VE (MEC < 25 × Cmax.tot cut-off)
hLiMTs ATP <100uM (hLiMTs [14]; [15]): -VE
hLiMTs/100xCmax, Proctor (2017) (hLiMTs [14]; hLiMTs, ATP, IC50 < 100 × Cmax.tot, ref Proctor et al. 2017): -VE
hLiMTs/100uM, Proctor (2017) (hLiMTs [14]; hLiMTs, ATP, IC50 threshold 100 µM, ref Proctor et al. 2017): -VE
